Measured values reported in ChEMBL document CHEMBL3885861, “Open TG-GATES”.

Species on record: Rattus norvegicus
Test: Open TG-GATES - Regimen: Daily Repeat
Assay type: toxicity, organism-based, Sprague-Dawley
Design: regimen Daily Repeat, gender Male, age 6 weeks
Conditions: in vivo, po, 0 mg/kg, route gavage, dose level Control; for KIDNEY_L / KIDNEY_R / KIDNEY_TOTAL: tissue Kidney; for ALP / ALT / AST / BUN / CRE / Ca / Cl / DBIL / GLC / IP / K / LDH / Na / PL / RALB / TBIL / TC / TG / TP / gamma-GTP: tissue Plasma

## O=C1CN(/N=C/c2ccc(-c3ccc([N+](=O)[O-])cc3)o2)C(O)=N1 [DANTROLENE]
72 h, time 3 day
  TERMINAL_BW: 235.4 g
  KIDNEY_L: 1.1 g
  KIDNEY_R: 1.1 g
  KIDNEY_TOTAL: 2.2 g
  ALP: 842.8 IU/L
  ALT: 34 IU/L
  AST: 62.8 IU/L
  BUN: 19.2 mg/dL
  CRE: 0.6 mg/dL
  Ca: 10.9 mg/dL
  Cl: 104 meq/L
  DBIL: 0.004 mg/dL
  GLC: 200.6 mg/dL
  IP: 7.5 mg/dL
  K: 4.7 meq/L
  LDH: 85 IU/L
  Na: 140.2 meq/L
  PL: 158.6 mg/dL
  RALB: 3.8 g/dL
  TBIL: 0.3 mg/dL
  TC: 78.4 mg/dL
  TG: 114.8 mg/dL
  TP: 5.8 g/dL
  gamma-GTP: 1 IU/L
72 h, tissue Blood, time 3 day
  APTT: 16.8 s
  Bas: 0%
  Eos: 1%
  Fbg: 224.8 mg/dL
  Hb: 13.3 g/dL
  Lym: 77%
  MCH: 21.6 pg
  MCHC: 33.6%
  MCV: 64.2 fL
  Mono: 6.6%
  Plat: 128.8 x10_4/uL
  RBC: 618.2 x10_4/ul
  Ret: 6.6%
  WBC: 113.2 x10_2/uL
[…], time 7 day
  TERMINAL_BW: 269.1 g
  KIDNEY_L: 1.2 g
  KIDNEY_R: 1.2 g
  KIDNEY_TOTAL: 2.4 g
  ALP: 931.4 IU/L
  ALT: 33.4 IU/L
  AST: 64.2 IU/L
  BUN: 18.2 mg/dL
  CRE: 0.5 mg/dL
  Ca: 10.7 mg/dL
  Cl: 106.8 meq/L
  DBIL: 0.002 mg/dL
  GLC: 204 mg/dL
  IP: 7.2 mg/dL
  K: 5.1 meq/L
  LDH: 76.6 IU/L
  Na: 138.6 meq/L
  PL: 164.2 mg/dL
  RALB: 3.8 g/dL
  TBIL: 0.3 mg/dL
  TC: 79.6 mg/dL
  TG: 138.8 mg/dL
  TP: 5.8 g/dL
  gamma-GTP: 1.4 IU/L
[…], time 14 day
  TERMINAL_BW: 300.9 g
  KIDNEY_L: 1.2 g
  KIDNEY_R: 1.3 g
  KIDNEY_TOTAL: 2.5 g
  ALP: 833.2 IU/L
  ALT: 31.4 IU/L
  AST: 61.6 IU/L
  BUN: 17.8 mg/dL
  CRE: 0.6 mg/dL
  Ca: 10.5 mg/dL
  Cl: 105.4 meq/L
  DBIL: 0.012 mg/dL
  GLC: 203.6 mg/dL
  IP: 7.5 mg/dL
  K: 4.5 meq/L
  LDH: 82.6 IU/L
  Na: 141.8 meq/L
  PL: 139.2 mg/dL
  RALB: 3.9 g/dL
  TBIL: 0.3 mg/dL
  TC: 62 mg/dL
  TG: 85.8 mg/dL
  TP: 5.9 g/dL
  gamma-GTP: 0.8 IU/L
[…], time 28 day
  TERMINAL_BW: 379.1 g
  KIDNEY_L: 1.4 g
  KIDNEY_R: 1.3 g
  KIDNEY_TOTAL: 2.7 g
  ALP: 628.6 IU/L
  ALT: 30.6 IU/L
  AST: 50.8 IU/L
  BUN: 18 mg/dL
  CRE: 0.6 mg/dL
  Ca: 10.3 mg/dL
  Cl: 106.8 meq/L
  DBIL: 0.016 mg/dL
  GLC: 187.8 mg/dL
  IP: 6.5 mg/dL
  K: 4.4 meq/L
  LDH: 83.2 IU/L
  Na: 140 meq/L
  PL: 143.4 mg/dL
  RALB: 3.8 g/dL
  TBIL: 0.3 mg/dL
  TC: 69.6 mg/dL
  TG: 127.2 mg/dL
  TP: 6.1 g/dL
[…], tissue Blood, time 7 day
  APTT: 16.9 s
  Bas: 0%
  Eos: 1%
  Fbg: 213 mg/dL
  Hb: 14 g/dL
  Lym: 78.2%
  MCH: 21 pg
  MCHC: 33.6%
  MCV: 62.7 fL
  Mono: 7.4%
  Plat: 126.8 x10_4/uL
  RBC: 666.4 x10_4/ul
  Ret: 5.1%
  WBC: 106.4 x10_2/uL
[…], tissue Blood, time 14 day
  APTT: 17.6 s
  Bas: 0%
  Eos: 0.4%
  Fbg: 201.8 mg/dL
  Hb: 14.8 g/dL
  Lym: 82.6%
  MCH: 20.3 pg
  MCHC: 33.3%
  MCV: 61.1 fL
  Mono: 3.8%
  Plat: 112.9 x10_4/uL
  RBC: 728.6 x10_4/ul
  Ret: 3.7%
  WBC: 110.6 x10_2/uL
[…], tissue Blood, time 28 day
  APTT: 18.6 s
  Bas: 0%
  Eos: 1.4%
  Fbg: 217.6 mg/dL
  Hb: 15.6 g/dL
  Ht: 46.2%
  Lym: 84%
  MCH: 19.5 pg
  MCHC: 33.9%
  MCV: 57.5 fL
  Mono: 4.6%
  Plat: 117 x10_4/uL
  RBC: 803.2 x10_4/ul
  Ret: 2.8%
  WBC: 103.3 x10_2/uL
